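GI50 marks 50% less growth. TGI: total growth inhibition.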
How the values were obtained:
Assay in all cases: growth of human tumour cells (NCI), 384-well format
PC-3 prostate = system: PC-3 prostate
CCRF-CEM leukemia = system: CCRF-CEM leukemia
SN12C renal = system: SN12C renal
MDA-MB-435 melanoma = system: MDA-MB-435 melanoma
OVCAR-8 ovarian = system: OVCAR-8 ovarian
BT-549 breast = system: BT-549 breast
UO-31 renal = system: UO-31 renal
NCI/ADR-RES ovarian = system: NCI/ADR-RES ovarian
T-47D breast = system: T-47D breast
NCI-H23 lung = system: NCI-H23 lung
SF-268 CNS = system: SF-268 CNS
SK-MEL-5 melanoma = system: SK-MEL-5 melanoma
K-562 leukemia = system: K-562 leukemia
786-0 renal = system: 786-0 renal
MOLT-4 leukemia = system: MOLT-4 leukemia
HL-60(TB) leukemia = system: HL-60(TB) leukemia
NCI-H226 lung = system: NCI-H226 lung
HOP-92 NSCLC = system: HOP-92 NSCLC
NCI-H522 lung = system: NCI-H522 lung
HOP-62 NSCLC = system: HOP-62 NSCLC
OVCAR-3 ovarian = system: OVCAR-3 ovarian
LOX IMVI melanoma = system: LOX IMVI melanoma
SF-295 CNS = system: SF-295 CNS
MCF7 breast = system: MCF7 breast
HCT-15 colon = system: HCT-15 colon
HS 578T breast = system: HS 578T breast
SK-OV-3 ovarian = system: SK-OV-3 ovarian
MDA-MB-468 breast = system: MDA-MB-468 breast
A498 renal = system: A498 renal
UACC-62 melanoma = system: UACC-62 melanoma
NCI-H460 NSCLC = system: NCI-H460 NSCLC
COLO 205 colon = system: COLO 205 colon
SNB-19 CNS = system: SNB-19 CNS
HCC-2998 colon = system: HCC-2998 colon
TK-10 renal = system: TK-10 renal
EKVX NSCLC = system: EKVX NSCLC
MALME-3M melanoma = system: MALME-3M melanoma
DU-145 prostate = system: DU-145 prostate
OVCAR-4 ovarian = system: OVCAR-4 ovarian
RXF 393 renal = system: RXF 393 renal
CAKI-1 renal = system: CAKI-1 renal
M14 melanoma = system: M14 melanoma
HT29 colon = system: HT29 colon
UACC-257 melanoma = system: UACC-257 melanoma
NCI-H322M lung = system: NCI-H322M lung
ACHN renal = system: ACHN renal
HCT-116 colon = system: HCT-116 colon
U251 glioblastoma = system: U251 glioblastoma
OVCAR-5 ovarian = system: OVCAR-5 ovarian
SK-MEL-28 melanoma = system: SK-MEL-28 melanoma
KM12 colon = system: KM12 colon
RPMI-8226 leukemia = system: RPMI-8226 leukemia
MDA-MB-231 breast = system: MDA-MB-231 breast
SW-620 colon = system: SW-620 colon
IGROV1 ovarian = system: IGROV1 ovarian
A549 NSCLC = system: A549 NSCLC
SNB-75 CNS = system: SNB-75 CNS
SF-539 CNS = system: SF-539 CNS
SR leukemia = system: SR leukemia
SK-MEL-2 melanoma = system: SK-MEL-2 melanoma

## CN[C@@H](C)C(=O)N[C@H](C(=O)N1CCC[C@H]1c1nc(C(=O)c2ccc(F)cc2)cs1)C1CCCCC1
PC-3 prostate
  GI50: 19.5 µM
  TGI: 38.7 µM
CCRF-CEM leukemia
  GI50: 7.4 µM
  TGI: 20.7 µM
SN12C renal
  GI50: 53.8 µM
  TGI: > 100 µM
MDA-MB-435 melanoma
  GI50: 14.1 µM
  TGI: 33.5 µM
OVCAR-8 ovarian
  GI50: 10.2 µM
  TGI: 24.1 µM
BT-549 breast
  GI50: 12 µM
  TGI: 24.4 µM
UO-31 renal
  GI50: 30 µM
  TGI: > 100 µM
NCI/ADR-RES ovarian
  GI50: 17.1 µM
  TGI: 34.9 µM
T-47D breast
  GI50: 13.1 µM
  TGI: 27.6 µM
NCI-H23 lung
  GI50: 13.3 µM
  TGI: 35.2 µM
SF-268 CNS
  GI50: 18.5 µM
  TGI: 36.9 µM
SK-MEL-5 melanoma
  GI50: 10.2 µM
  TGI: 21.8 µM
K-562 leukemia
  GI50: 16.8 µM
  TGI: 30.5 µM
786-0 renal
  GI50: 15.8 µM
  TGI: 29.3 µM
MOLT-4 leukemia
  GI50: 13.1 µM
  TGI: 25.7 µM
HL-60(TB) leukemia
  GI50: 0.612 µM
  TGI: 3 µM
NCI-H226 lung
  GI50: 21.7 µM
  TGI: 60.5 µM
HOP-92 NSCLC
  GI50: 4.3 µM
  TGI: 19 µM
NCI-H522 lung
  GI50: 6.47 µM
  TGI: 20.8 µM
HOP-62 NSCLC
  GI50: 3.25 µM
  TGI: 17.6 µM
OVCAR-3 ovarian
  GI50: 11.4 µM
  TGI: 25.2 µM
LOX IMVI melanoma
  GI50: 16.2 µM
  TGI: 29.7 µM
SF-295 CNS
  GI50: 16.4 µM
  TGI: 30.9 µM
MCF7 breast
  GI50: 11.7 µM
  TGI: 26.1 µM
HCT-15 colon
  GI50: 20.3 µM
  TGI: 42 µM
HS 578T breast
  GI50: 5.06 µM
  TGI: 20.8 µM
SK-OV-3 ovarian
  GI50: 0.0692 µM
  TGI: 1.58 µM
MDA-MB-468 breast
  GI50: 1.86 µM
  TGI: 13.8 µM
A498 renal
  GI50: 15.5 µM
  TGI: 29.1 µM
UACC-62 melanoma
  GI50: 18.7 µM
  TGI: 34.1 µM
NCI-H460 NSCLC
  GI50: 20.2 µM
  TGI: 34.8 µM
COLO 205 colon
  GI50: 17.1 µM
  TGI: 32.5 µM
SNB-19 CNS
  GI50: 31.8 µM
  TGI: > 100 µM
HCC-2998 colon
  GI50: 14.2 µM
  TGI: 27.4 µM
TK-10 renal
  GI50: 21.2 µM
  TGI: 53.3 µM
EKVX NSCLC
  GI50: 18.7 µM
  TGI: 41.3 µM
MALME-3M melanoma
  GI50: 0.33 µM
  TGI: 2.99 µM
DU-145 prostate
  GI50: 17.9 µM
  TGI: 39.3 µM
OVCAR-4 ovarian
  GI50: 0.044 µM
  TGI: 0.51 µM
RXF 393 renal
  GI50: 0.409 µM
  TGI: 11.1 µM
CAKI-1 renal
  GI50: 25.5 µM
  TGI: 48.4 µM
M14 melanoma
  GI50: 18.2 µM
  TGI: 32.2 µM
HT29 colon
  GI50: 17.1 µM
  TGI: 31.1 µM
UACC-257 melanoma
  GI50: 15.4 µM
  TGI: 28.8 µM
NCI-H322M lung
  GI50: 20.3 µM
  TGI: 51.4 µM
ACHN renal
  GI50: 23.3 µM
  TGI: 56.7 µM
HCT-116 colon
  GI50: 18 µM
  TGI: 32.3 µM
U251 glioblastoma
  GI50: 15.9 µM
  TGI: 29.7 µM
OVCAR-5 ovarian
  GI50: 23.4 µM
  TGI: 51 µM
SK-MEL-28 melanoma
  GI50: 16.4 µM
  TGI: 30 µM
KM12 colon
  GI50: 17.3 µM
  TGI: 32.2 µM
RPMI-8226 leukemia
  GI50: 6.69 µM
  TGI: 20 µM
MDA-MB-231 breast
  GI50: 0.597 µM
  TGI: 3.29 µM
SW-620 colon
  GI50: 23.9 µM
  TGI: 47.8 µM
IGROV1 ovarian
  GI50: 21.2 µM
  TGI: 39.5 µM
A549 NSCLC
  GI50: 26.8 µM
  TGI: > 100 µM
SNB-75 CNS
  GI50: 10.1 µM
  TGI: 25.6 µM
SF-539 CNS
  GI50: 17.5 µM
  TGI: 31.3 µM

## C[C@H]1C[C@@H](n2c(Nc3ccc(OC(F)(F)F)cc3)nc3cc(CCC(=O)O)ccc32)CC(C)(C)C1
PC-3 prostate
  GI50: 13.7 µM
  TGI: 26.8 µM
SR leukemia
  GI50: 7 µM
  TGI: 20 µM
CCRF-CEM leukemia
  GI50: 11.9 µM
  TGI: 24.3 µM
SN12C renal
  GI50: 15.7 µM
  TGI: 29.2 µM
MDA-MB-435 melanoma
  GI50: 14.9 µM
  TGI: 28.3 µM
OVCAR-8 ovarian
  GI50: 9.58 µM
  TGI: 22 µM
BT-549 breast
  GI50: 13 µM
  TGI: 25.8 µM
UO-31 renal
  GI50: 11.9 µM
  TGI: 24.4 µM
NCI/ADR-RES ovarian
  GI50: 16.1 µM
  TGI: 29.8 µM
T-47D breast
  GI50: 13.5 µM
  TGI: 27.6 µM
NCI-H23 lung
  GI50: 14.6 µM
  TGI: 27.9 µM
SF-268 CNS
  GI50: 13 µM
  TGI: 25.8 µM
SK-MEL-5 melanoma
  GI50: 14.2 µM
  TGI: 27.3 µM
K-562 leukemia
  GI50: 12.2 µM
  TGI: 24.9 µM
786-0 renal
  GI50: 13.8 µM
  TGI: 26.8 µM
MOLT-4 leukemia
  GI50: 5.49 µM
  TGI: 17.4 µM
HL-60(TB) leukemia
  GI50: 8.07 µM
  TGI: 17.7 µM
NCI-H226 lung
  GI50: 16.2 µM
  TGI: 29.8 µM
HOP-92 NSCLC
  GI50: 16 µM
  TGI: 29.5 µM
NCI-H522 lung
  GI50: 16.5 µM
  TGI: 30.1 µM
HOP-62 NSCLC
  GI50: 12.2 µM
  TGI: 24.7 µM
OVCAR-3 ovarian
  GI50: 9.71 µM
  TGI: 22.5 µM
LOX IMVI melanoma
  GI50: 16.7 µM
  TGI: 30.5 µM
SF-295 CNS
  GI50: 11.8 µM
  TGI: 24.2 µM
MCF7 breast
  TGI: 19.2 µM
HCT-15 colon
  GI50: 13.9 µM
  TGI: 27.1 µM
HS 578T breast
  GI50: 11 µM
  TGI: 23.1 µM
SK-OV-3 ovarian
  GI50: 18.2 µM
  TGI: 32.2 µM
MDA-MB-468 breast
  GI50: 13.7 µM
  TGI: 28.7 µM
A498 renal
  GI50: 13.3 µM
  TGI: 26.2 µM
UACC-62 melanoma
  GI50: 15.2 µM
  TGI: 28.6 µM
NCI-H460 NSCLC
  GI50: 13.6 µM
  TGI: 26.8 µM
COLO 205 colon
  GI50: 17.5 µM
  TGI: 31.5 µM
SNB-19 CNS
  GI50: 12.5 µM
  TGI: 25.1 µM
HCC-2998 colon
  GI50: 14.1 µM
  TGI: 27.1 µM
TK-10 renal
  GI50: 16 µM
  TGI: 29.7 µM
EKVX NSCLC
  GI50: 14.6 µM
  TGI: 27.9 µM
MALME-3M melanoma
  GI50: 18.3 µM
  TGI: 32.4 µM
DU-145 prostate
  GI50: 11.8 µM
  TGI: 24.2 µM
OVCAR-4 ovarian
  GI50: 13.1 µM
  TGI: 25.9 µM
RXF 393 renal
  GI50: 13 µM
  TGI: 25.7 µM
CAKI-1 renal
  GI50: 17.2 µM
  TGI: 31 µM
M14 melanoma
  GI50: 15.4 µM
  TGI: 28.9 µM
HT29 colon
  GI50: 12.7 µM
  TGI: 25.6 µM
UACC-257 melanoma
  GI50: 17.8 µM
  TGI: 31.8 µM
NCI-H322M lung
  GI50: 17 µM
  TGI: 30.9 µM
SK-MEL-2 melanoma
  GI50: 17.9 µM
  TGI: 31.8 µM
ACHN renal
  GI50: 15.5 µM
  TGI: 30.8 µM
HCT-116 colon
  GI50: 12.2 µM
  TGI: 24.9 µM
U251 glioblastoma
  GI50: 9.69 µM
  TGI: 22.5 µM
OVCAR-5 ovarian
  GI50: 17.2 µM
  TGI: 31.1 µM
SK-MEL-28 melanoma
  GI50: 14.3 µM
  TGI: 27.5 µM
KM12 colon
  GI50: 13.8 µM
  TGI: 26.9 µM
RPMI-8226 leukemia
  GI50: 4.46 µM
  TGI: 11.4 µM
MDA-MB-231 breast
  GI50: 16.4 µM
  TGI: 30 µM
SW-620 colon
  GI50: 14.6 µM
  TGI: 27.9 µM
IGROV1 ovarian
  GI50: 12.7 µM
  TGI: 25.4 µM
A549 NSCLC
  GI50: 7.54 µM
  TGI: 20.2 µM
SNB-75 CNS
  GI50: 20.3 µM
  TGI: 34.6 µM
SF-539 CNS
  GI50: 14.5 µM
  TGI: 27.7 µM
